According to patent US20260165976A1, “ANTI-EVAPORATIVE LIPID FORMULATIONS” (UNIVERSITY OF HELSINKI, priority 2022, published 2026):
“Also recorded” adds a separate entry of the source.

How the values were obtained:
Assay type in all cases: physicochemical
[1] = Evaporation resistance / evaporation reduction of lipid films (modified Langmuir and Schaefer method); settings: for evaporation resistance of OAHFA films: individual lipid film on PBS subphase, 35±1° C., FIG. 2; for evaporation resistance of phospholipid films: FIG. 13C
Method: (§1) The lipid components and tailored mixtures dissolved in chloroform, or alternatively, the formulations undergoing characterization studies were spread onto the air-buffer interface of a Langmuir trough, either a Mini trough (KSV, Helsinki, Finland) or a Large trough (KSV NIMA, Biolin Scientific, Espoo, Finland), which was filled with PBS buffer. The samples were allowed to equilibrate for 3 min before starting the measurements. The surface pressure was measured using a Wilhelmy plate, the surface potential was measured using a KSV NIMA Surface Potential Sensor (Espoo, Finland) when relevant and Brewster angle microscopy (BAM) images were captured using a KSV NIMA microBAM (Espoo, Finland) instrument. The films were compressed at a constant rate of 5 or 10 mm/min and the subphase temperature was maintained at 35±1° C. The measurements were performed in an acrylic box under an ozone-free atmosphere to prevent undesired oxidation of the lipids. An ozone-free atmosphere was generated by passing dry air through ODS-3P ozone destruct unit (Ozone solutions, Hull, Iowa) and into the enclosure at a rate of 76 l/min.
The adaptive features of the formulations were uncovered through studying the spreading capabilities of the lipid films over compression-expansion cycles using the Langmuir setup. In more detail, the volume employed of each formulation was the volume required to observe a response in the surface pressure isotherm over one compression-expansion cycle. Altogether, the films were subjected to twenty compression-expansion cycles employing a 50 mm/min. compression/expansion rate and the changes in the surface pressure isotherms were monitored as described above. Evaporation resistance was determined by a modified Langmuir and Schaefer method (Langmuir et al, 1943, J Franklin Inst, 235, 119-162). The measurements were conducted by compressing the film to a specific mean molecular area, ranging between 2-40 Å^2/molecule (for individual compounds), or a specified area (for formulations) and placing a tailored desiccant cartridge, with a water-permeable membrane, approximately 2 mm above the aqueous surface. The commercial silica gel containing desiccant cartridges (SP Industries, Warminster, PA) were modified by replacing the membrane with a Millipore Immobilon-P PVDF membrane (450 nm pore size, Bedford, MA). The desiccant cartridge was fixed in position for 5 minutes and the mass of the absorbed water was determined by gravimetric techniques. In order to take into account the water absorbed from the air inside the enclosure, a second background measurement was conducted in parallel inside the enclosed acrylic box. From the measurements, the evaporation resistance was calculated with the equation (1).
The terms used in the equation are as follows: Adesicant=area of the desiccant cartridge; • t=measuring time; (w-w0)=water concentration difference between the aqueous surface and the surface of the desiccant cartridge; m(I)=water amount absorbed in the presence of the lipid film; mPBS(0)=water amount absorbed in the absence of the lipid film; Δmtot=mass of evaporated water during the measurement; ti=time point D=diffusion coefficient; ρ=water density; ATrough=area of the Langmuir Trough.
The evaporation reduction was determined as the total reduction of water absorbed by a desiccant cartridge when a lipid film was covering the subphase versus the situation when the lipid film was absent. Equation (2) was utilized in the calculations.

[2] = Differential scanning calorimetry (DSC) of active components, phospholipids and liposomal formulations; settings: heating 10° C./min, triplicate; for Onset Tm2 ± SD / Peak Tm1 ± SD / Peak Tm2 ± SD: in °C (unit assumed)
Method: Differential scanning calorimetry (DSC 2500 with an RCS90 cooling unit; TA instruments, Newcastle, DE, USA) was utilized to study the thermal properties of the active compounds. Nitrogen (N2) was utilized as the purge gas at rate of 50 mL/min during the measurements. […] of the active components were placed into aluminum pans with manually made pin holes (DSC Consumables incorporated, Austin, Minnesota, USA). The samples were subsequently sealed and analyzed with DSC utilizing the TRIOS® software (TA instruments, Newcastle, DE, USA). All results were compared to an empty reference pan containing a pin hole. Each measurement was performed in triplicate. Briefly, the samples were cooled to 0° C., then heated from 0° C. to 75° C. at a rate of 10° C./min. Then, the samples were kept isothermally at 75° C. for 10 min, after which they were equilibrated to −50° C. at an uncontrolled rate. Ultimately, the samples were heated again to 75° C. at a rate of 10° C./min.
The phospholipid bilayer phase transition behavior was studied to assess whether successful integration of the active components into the phospholipid bilayer had been achieved or not. The studies were performed in a similar fashion as described for active components above. In this case, 20 μL of a formulation was pipetted into the aluminum pans (DSC Consumables incorporated, Austin, Minnesota, USA), which were subsequently sealed and analyzed with DSC employing the TRIOS® software (TA instruments, Newcastle, DE, USA). The samples were cooled and equilibrated to 5° C., then heated from 5° C. to 70-85° C. at a rate of 10° C./min and the results were compared to the reference pan containing the liquid used to hydrate the lipid film. All prepared liposomal formulations which viscosity were low enough to be pipetted, were analyzed by DSC and compared to the thermograms obtained from liposomes containing only the PC-component and the thermograms obtained for the active components.

[3] = Surface pressure isotherms and Brewster angle microscopy of films on a Langmuir trough; settings: PBS subphase, 35±1° C.
Method: as §1

SMILES	Onset Tm1 ± SD [2]	Peak Tm1 ± SD [2]	evaporation resistance of OAHFA films [1]	further results
CCCCCCCC/C=C\CCCCCCCC(=O)OCCCCCCCCCCCC(=O)O [12:0/18:1-OAHFA, 12-(oleoyloxy)dodecanoic acid]			significantly weaker evaporation-resistant properties	
CCCCCCCCCCCCCCCCCC(=O)OC[C@H](COP(=O)(O)OCCN)OC(=O)CCCCCCCCCCCCCCCCC [18:0 PE, 1,2-distearoyl-sn-glycero-3-phosphoethanolamine]				phase behaviour of the film (surface pressure isotherm, BAM) [3]: suitable properties; evaporation resistance of phospholipid films [1]: highest evaporation resistance
CCCCCCCCCCCCCCCCCCO [1-Octadecanol, octadecanol]	56.49 ± 0.49	57.61 ± 0.22		evaporation resistance of long chain fatty alcohols ([1]; FIG. 5): most promising species
CCCCCCCC/C=C\CCCCCCCCOC(=O)CCCCCCCCCCCCCCCCCCC(=O)O [R-20:0/18:1-OAHFA, 20-(oleyloxy)-20-oxo-eicosanoic acid]			reasonable degree of evaporation resistance	
CCCCCCCC/C=C\CCCCCCCC(=O)OCCCCCCC/C=C\CCCCCCCCCCCCCCCCCCCC(=O)O [29:1/18:1-OAHFA, (21Z)-29-(oleoyloxy)nonacos-21-enoic acid]			reasonable degree of evaporation resistance	
CCCCCCCCCCCCCCCC(=O)OC[C@H](COP(=O)(O)OCCN)OC(=O)CCCCCCCCCCCCCCC [16:0 PE, 1,2-dipalmitoyl-sn-glycero-3-phosphoethanolamine]				phase behaviour of the film (surface pressure isotherm, BAM) [3]: suitable properties
CCCCCCCC/C=C\CCCCCCCC(=O)OCCCCCCCCCCCCCCCCCCCCCC(=O)O [22:0/18:1-OAHFA, 22-(oleoyloxy)docosanoic acid]			reasonable degree of evaporation resistance	
CCCCCCCC/C=C\CCCCCCCC(=O)OCCCCCCCCCCCCCCCCCC(=O)O [18:0/18:1-OAHFA, 18-(oleoyloxy)octadecanoic acid]	54.92 ± 0.87	56.50 ± 0.64	displays evaporation resistance; also recorded: highest evaporation resistance	phase behaviour of the film (surface pressure isotherm, BAM) [3]: does undergo a liquid to solid phase transition; surface activity / spreading ability [3]: surface active lipids
CCCCCCCC/C=C\CCCCCCCC(=O)OCCCCCCC/C=C\CCCCCCCCCCC(=O)O [20:1/18:1-OAHFA, (12Z)-20-(oleoyloxy)eicos-12-enoic acid]			significantly weaker evaporation-resistant properties	phase behaviour of the film (surface pressure isotherm, BAM) [3]: does not undergo a phase transition; surface activity / spreading ability [3]: surface active lipids
CCCCCCCCCCCCCCCCCC(=O)OC[C@H](COP(=O)(O)OC[C@H](N)C(=O)[O-])OC(=O)CCCCCCCCCCCCCCCCC.[Na+] [18:0 PS, 1,2-distearoyl-sn-glycero-3-phospho-L-serine (sodium salt)]				phase behaviour of the film (surface pressure isotherm, BAM) [3]: suitable properties
CCCCCCCC/C=C\CCCCCCCC(=O)OCCCCCCCCCCCCCCC(=O)O [15:0/18:1-OAHFA, 15-(oleoyloxy)pentadecanoic acid]			significantly weaker evaporation-resistant properties	
CCCCCCCCCCCCCCCCCC(=O)OC[C@H](COP(=O)([O-])OCC(O)CO)OC(=O)CCCCCCCCCCCCCCCCC.[Na+] (mixture of isomers) [18:0 PG, 1,2-distearoyl-sn-glycero-3-phospho-rac-(1-glycerol) sodium salt]				phase behaviour of the film (surface pressure isotherm, BAM) ([3]; sodium salt): suitable properties; also recorded: phase transition occurring at a low surface pressure; evaporation resistance of phospholipid films [1]: highest evaporation resistance

More lines, main results first:

Onset Tm1 ± SD [2]	Peak Tm1 ± SD [2]	SMILES	evaporation resistance of OAHFA films [1]	further results
41.65 ± 1.16	46.54 ± 0.18	CCCCCCCC/C=C\CCCCCCCC(=O)OCCCCCCCCCCCCCCCCCCCC(=O)O [20:0/18:1-OAHFA, 20-(oleoyloxy)eicosanoic acid]	reasonable degree of evaporation resistance	Onset Tm2 ± SD [2]: 56.89 ± 1.42; Peak Tm2 ± SD [2]: 59.52 ± 0.38
63.04 ± 0.21	64.87 ± 0.05	CCCCCCCCCCCCCCCCCCCC(=O)OC[C@H](COP(=O)([O-])OCC[N+](C)(C)C)OC(=O)CCCCCCCCCCCCCCCCCCC [DAPC, 1,2-diarachidoyl-sn-glycero-3-phosphatidylcholine]		
34.48 ± 0.05	36.74 ± 0.92	CCCCCCCC/C=C\CCCCCCCC(=O)OCCCCCCCCCCCCCCCCCCCCCC [BO, behenyl oleate]		
50.13 ± 0.29	54.67 ± 0.18	CCCCCCCCCCCCCCCCCC(=O)OC[C@H](COP(=O)([O-])OCC[N+](C)(C)C)OC(=O)CCCCCCCCCCCCCCCCC [DSPC, 1,2-distearoyl-sn-glycero-3-phosphocholine]		
55.00 ± 0.87	57.53 ± 0.95	CCCCCCCC/C=C\CCCCCCCCOC(=O)CCCCCCCCCCCCCCCCC(=O)O [R-18:0/18:1-OAHFA, 18-(oleyloxy)-18-oxo-octadecanoic acid]	reasonable degree of evaporation resistance	Onset Tm2 ± SD [2]: 63.20 ± 0.28; Peak Tm2 ± SD [2]: 63.88 ± 0.14
17.37 ± 0.69	22.74 ± 1.57	CCCCCCCCCCCCCC(=O)OC[C@H](COP(=O)([O-])OCC[N+](C)(C)C)OC(=O)CCCCCCCCCCCCC [DMPC, 1,2-dimyristoyl-sn-glycero-3-phosphocholine]		
